TGI and GI50 data for nine molecules are collected here from PubChem BioAssay (NCI).

“And” between values parts separate entries of the source, which are not always exact repeats. Equal values may be shown once.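 Compound exposure: 48 hours, 5 concentrations, 96-well plates. GI50: concentration for 50% inhibition of growth. TGI marks complete inhibition of growth.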

Test systems include CCRF-CEM leukemia; A498 renal; RXF 393 renal; LOX IMVI melanoma; UO-31 renal; T-47D breast; NCI-H226 lung; MOLT-4 leukemia; NCI-H23 lung; SK-MEL-28 melanoma.
Common to all, as to experiment: NCI-60 cell line screen, 48 h

In the case of `Cc1cn(C2CC(O)C(COC(N)=O)O2)c(=O)[nH]c1=O` (stereo not given), the TGI in the assay on CCRF-CEM leukemia, in the assay on A498 renal, with RXF 393 renal, in the assay on LOX IMVI melanoma, in the assay on UO-31 renal and in the assay on T-47D breast was over 100 µM in each case. Besides, the TGI in the assay with NCI-H226 lung, in the assay with MOLT-4 leukemia, with NCI-H23 lung and in the assay on SK-MEL-28 melanoma was over 100 µM each time.
For `Nc1no[n+]([O-])c1-c1nnc2c(n1)-c1ccccc1C2=O`, the GI50 with CCRF-CEM leukemia was 3.22 µM; in the assay with A498 renal, 22.2 µM; in the assay on RXF 393 renal, 3.22 µM; with LOX IMVI melanoma, 1.81 µM; in the assay on UO-31 renal, 2.25 µM; in the assay with T-47D breast it was 1.91 µM. Moreover, the GI50 with NCI-H226 lung is 16.1 µM; with MOLT-4 leukemia, 2.38 µM; with NCI-H23 lung, 1.88 µM; in the assay with SK-MEL-28 melanoma, 3.91 µM. The TGI came out at 9.37 µM in the assay on CCRF-CEM leukemia; 63.2 µM in the assay on A498 renal; 12.4 µM in the assay on RXF 393 renal; 4.16 µM in the assay on LOX IMVI melanoma; 6.75 µM in the assay on UO-31 renal; 5.35 µM in the assay with T-47D breast. For the same molecule, the TGI was 37.7 µM in the assay with NCI-H226 lung, 6.21 µM with MOLT-4 leukemia, 4.35 µM in the assay on NCI-H23 lung and 13.4 µM in the assay on SK-MEL-28 melanoma.
As to `NCCCNc1nc2ccccc2c2c(=O)c3cc(F)cc(Cl)c3sc12`, the GI50 in the assay on CCRF-CEM leukemia was 1.95 µM; with A498 renal, 2.11 µM; in the assay with RXF 393 renal, 1.62 µM; with LOX IMVI melanoma, 1.68 µM; in the assay with UO-31 renal, 1.47 µM; in the assay with T-47D breast, 1.4 µM. Moreover, the GI50 in the assay on NCI-H226 lung was 6.37 µM; with MOLT-4 leukemia, 1.78 µM; with NCI-H23 lung, 1.56 µM; in the assay with SK-MEL-28 melanoma, 1.94 µM. The TGI with CCRF-CEM leukemia was 4.58 µM; with A498 renal, 7.04 µM; with RXF 393 renal it was 3.16 µM; in the assay on LOX IMVI melanoma, 3.14 µM; with UO-31 renal, 2.84 µM; with T-47D breast it was 4.23 µM. Further, the TGI in the assay with NCI-H226 lung amounted to 23.7 µM; with MOLT-4 leukemia it was 3.77 µM; with NCI-H23 lung, 3.07 µM; in the assay on SK-MEL-28 melanoma, 3.49 µM.
For the molecule `NC(Cc1c[nH]c2cccc(F)c12)C(=O)O` (stereo not given), the TGI in the assay with CCRF-CEM leukemia was over 4500 µM; in the assay on A498 renal, 3670 µM; in the assay with RXF 393 renal it was over 4500 µM; in the assay on LOX IMVI melanoma, 982 µM; with UO-31 renal, over 4500 µM; in the assay on T-47D breast it was over 4500 µM. The TGI in the assay on NCI-H226 lung is over 4500 µM; in the assay on MOLT-4 leukemia it was over 4500 µM; with NCI-H23 lung, 3180 µM; in the assay with SK-MEL-28 melanoma, over 4500 µM. Moreover, the GI50 was 1150 µM with A498 renal; 1320 µM with RXF 393 renal; 51.6 µM and 211 µM with LOX IMVI melanoma; 842 µM with UO-31 renal; 3210 µM in the assay with NCI-H226 lung; 41.7 µM and 338 µM with MOLT-4 leukemia. Moreover, the GI50 in the assay on SK-MEL-28 melanoma was 74.7 µM and 360 µM.
Consider `NS(=O)(=O)c1cc(C(=O)O)c(Cl)c([N+](=O)[O-])c1Cl`, for which the TGI in the assay on CCRF-CEM leukemia, in the assay on A498 renal, in the assay on RXF 393 renal, in the assay with LOX IMVI melanoma, with UO-31 renal and in the assay on T-47D breast was over 100 µM each time. Moreover, the TGI in the assay with NCI-H226 lung, in the assay on MOLT-4 leukemia, in the assay on NCI-H23 lung and with SK-MEL-28 melanoma was over 100 µM in each case.
Consider `C=CCN1C(=O)[C@]2(SC1=S)[C@H](c1cccc(Cl)c1)CN(C)[C@]21C(=O)NC2C=CC(Cl)=C[C@H]21` (stereo not given in full), for which the GI50 in the assay with CCRF-CEM leukemia was 3.25 µM; in the assay with A498 renal, 2.7 µM; with RXF 393 renal, 2.14 µM; in the assay on LOX IMVI melanoma, 1.73 µM; with UO-31 renal, 1.85 µM; in the assay with T-47D breast, 2.84 µM. Also, the GI50 with NCI-H226 lung was 1.59 µM; in the assay on MOLT-4 leukemia, 2.07 µM; in the assay with NCI-H23 lung, 6.12 µM; in the assay on SK-MEL-28 melanoma, 10.9 µM. Moreover, the TGI with CCRF-CEM leukemia worked out at 11.6 µM; in the assay on A498 renal it was 7.48 µM; in the assay with RXF 393 renal it was 5.8 µM; in the assay with LOX IMVI melanoma, 3.95 µM; in the assay on UO-31 renal, 9.06 µM; in the assay with T-47D breast, 14.7 µM. Besides, the TGI in the assay on NCI-H226 lung worked out at 3.98 µM; in the assay on MOLT-4 leukemia, 6.82 µM; with NCI-H23 lung, 22 µM; in the assay with SK-MEL-28 melanoma it was 27.8 µM.
Turning to `COC(=O)[C@H](CCCCNC(=O)OCc1ccccc1)NC(=O)[C@@H](NC(=O)Nc1cc(C(F)(F)F)cc(C(F)(F)F)c1)C(C)C`, the GI50 in the assay with CCRF-CEM leukemia, with A498 renal, in the assay with RXF 393 renal, with LOX IMVI melanoma, in the assay with UO-31 renal and with T-47D breast was over 10 µM each time. Besides, the GI50 in the assay with NCI-H226 lung, with MOLT-4 leukemia, in the assay on NCI-H23 lung and with SK-MEL-28 melanoma was over 10 µM in each case. Further, the TGI with CCRF-CEM leukemia, with A498 renal, in the assay on RXF 393 renal, with LOX IMVI melanoma, in the assay with UO-31 renal and in the assay with T-47D breast was over 10 µM in each case. Besides, the TGI in the assay with NCI-H226 lung, with MOLT-4 leukemia, in the assay with NCI-H23 lung and in the assay with SK-MEL-28 melanoma was over 10 µM throughout.
Consider `C=C1C(=O)O[C@H]2[C@H]1CC/C(COC(=O)N[C@H](Cc1c[nH]c3ccccc13)C(=O)OC)=C\CC[C@@]1(C)O[C@@H]21`, for which the GI50 is 1.78 µM in the assay on CCRF-CEM leukemia; 10.9 µM in the assay with A498 renal; 1.28 µM with RXF 393 renal; 1.36 µM in the assay with LOX IMVI melanoma; 1.49 µM with UO-31 renal; 1.94 µM in the assay on T-47D breast. The GI50 is 2.2 µM in the assay on NCI-H226 lung, 2.5 µM with MOLT-4 leukemia, 4.3 µM with NCI-H23 lung and 1.96 µM in the assay with SK-MEL-28 melanoma. The TGI with CCRF-CEM leukemia turned out to be 6.69 µM; with A498 renal it was 22.9 µM; in the assay with RXF 393 renal, 2.66 µM; in the assay with LOX IMVI melanoma, 2.85 µM; in the assay on UO-31 renal it was 2.84 µM; in the assay on T-47D breast, 5.06 µM. Moreover, the TGI amounted to 5.73 µM in the assay with NCI-H226 lung, 7.54 µM in the assay with MOLT-4 leukemia, 17.7 µM with NCI-H23 lung and 4.48 µM in the assay with SK-MEL-28 melanoma.
In the case of `NC(=O)c1ncn2c(=O)n(CCCl)nnc12`, the GI50 in the assay on CCRF-CEM leukemia is over 62.9 µM; in the assay with MOLT-4 leukemia, 37.2 µM; in the assay on NCI-H23 lung, over 72.8 µM. Also, the TGI in the assay on CCRF-CEM leukemia stood at 440 µM; in the assay on A498 renal, 375 µM; in the assay on RXF 393 renal it was 337 µM; in the assay on LOX IMVI melanoma, 279 µM; with UO-31 renal, 521 µM; with T-47D breast, 941 µM. The TGI came to 425 µM in the assay on NCI-H226 lung, 567 µM in the assay on MOLT-4 leukemia, 330 µM in the assay with NCI-H23 lung and 562 µM in the assay with SK-MEL-28 melanoma.
